In patent US10947241B2, “Phenyl phthalazine derivative, method for the preparation thereof, and pharmaceutical composition comprising the same” (Seoul National University Hospital, priority 2016, dated 2021):
Counter-ions that a name gives are not always drawn.

Target: hResistin (Homo sapiens (Human), UniProt Q9HD89)
Test: Evaluation of the ability to inhibit TNF-α secretion by hResistin (THP-1 cells, ELISA)
Type: cell-based
Details: for inhibition at 5 µM: inhibition of TNF-α secretion by hResistin in THP-1 cells; for IC50: THP-1 human monocyte cell line, human recombinant Resistin
Description: Experimental Example: Evaluation of the Ability to Inhibit TNF-α Secretion by hResistin
Using THP-1 (human monocyte) cell line and ELISA system, the abilities to inhibit TNF-α secretion by hResistin (IC50) were evaluated for the compounds prepared in the above examples. The compounds target hResistin, and the abilities of the compounds to inhibit TNF-α secretion by human recombinant Resistin in human monocyte (THP-1) were evaluated. The abilities to inhibit TNF-α secretion were assessed by ELISA quantifying the amount of antibody with the enzyme as a marker using an antigen-antibody reaction.
Specifically, the cultured cells were spun down at 1,500 rpm for 2 minutes, the supernatant was removed and then the cells were re-suspended in 10 mL of complete RPMI-1640 medium. After counting the number of cells using Luna™ Automated Cell Counter, cells were plated into 96-well assay plates at 50 μL per well. The cells cultured for 24 hours were treated with the test substances in accordance with the concentration for 1 hour, and then the supernatant was collected and subjected to ELISA assay. In the ELISA assay, the absorbance at 450 nm (OD450 nm) was measured using Flexstation 3. The ability of each test substance to inhibit TNF-α secretion (IC50) and its inhibition at a concentration of 5 uM are shown in Table 1 below.

Sequence of hResistin (Q9HD89 19-108): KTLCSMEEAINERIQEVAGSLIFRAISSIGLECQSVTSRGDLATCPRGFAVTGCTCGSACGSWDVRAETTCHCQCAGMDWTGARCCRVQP

Structure (SMILES) | inhibition at 5 µM [%] | IC50 [nM]
CNC1CCN(c2nnc(-c3ccc(Cl)cc3)c3cc(Cl)ccc23)C1 (centres unmarked) [Example 90, 1-(6-chloro-4-(4-chlorophenyl)phthalazin-1-yl)-N-methylpyrrolidin-3-amine hydrochloride] | 86.7 | 900
NCCN1CCN(c2nnc(-c3ccc(Cl)cc3)c3ccccc23)CC1 [Example 38, 2-(4-(4-(4-chlorophenyl)phthalazin-1-yl)piperazin-1-yl)ethanamine hydrochloride] | 69.5 | 7900
CNC1CCN(c2nnc(Nc3ccc(Cl)cc3)c3ccccc23)C1 (centres unmarked) [Example 97, N-(4-chlorophenyl)-4-(3-(methylamino)pyrrolidin-1-yl)phthalazin-1-amine] | 26.9 | 
NC(=O)CC(N)C(=O)N1CCN(c2nnc(-c3ccc(Cl)cc3)c3ccccc23)CC1 (centres unmarked) [Example 85, 3-amino-4-(4-(4-(4-chlorophenyl)phthalazin-1-yl)piperazin-1-yl)-4-oxobutanamide hydrochloride] | 45.3 | 5400
O=C([C@H]1CCCN1)N1CCN(c2nnc(-c3ccc(Cl)cc3)c3ccccc23)CC1 [Example 51, (R)-(4-(4-(4-chlorophenyl)phthalazin-1-yl)piperazin-1-yl)(pyrrolidin-2-yl)methanone hydrochloride] | 88.2 | 800
CC(C)[C@H](N)C(=O)N1CCN(c2nnc(-c3ccc(Cl)cc3)c3ccccc23)CC1 [Example 47, (S)-2-amino-1-(4-(4-(4-chlorophenyl)phthalazin-1-yl)piperazin-1-yl)-3-methylbutan-1-one hydrochloride] | 87.1 | 700
CC(C)(N)C(=O)N1CCN(c2nnc(-c3ccc(Cl)cc3)c3ccccc23)CC1 [Example 43, 2-amino-1-(4-(4-(4-chlorophenyl)phthalazin-1-yl)piperazin-1-yl)-2-methyl propan-1-one hydrochloride] | 84.4 | 1300
Clc1ccc(-c2nnc(N3CCCN(Cc4ccccc4)CC3)c3ccccc23)cc1 [Example 67, 1-(4-benzyl-1,4-diazepan-1-yl)-4-(4-chlorophenyl)phthalazine] | 38.9 | 
O=C1CN[C@H](C(=O)N2CCN(c3nnc(-c4ccc(Cl)cc4)c4ccccc34)CC2)CN1 [Example 81, (S)-5-(4-(4-(4-chlorophenyl)phthalazin-1-yl)piperazine-1-carbonyl)piperazin-2-one hydrochloride] | 48.1 | 
O=S(=O)(C1CC1)N1CCN(c2nnc(-c3ccc(Cl)cc3)c3ccccc23)CC1 [Example 37, 1-(4-chlorophenyl)-4-(4-(cyclopropylsulfonyl)piperazin-1-yl)phthalazine] | 52.9 | 
Clc1ccc(-c2nnc(O[C@H]3CCNC3)c3ccccc23)cc1 [Example 95, (S)-1-(4-chlorophenyl)-4-(pyrrolidin-3-yloxy)phthalazine hydrochloride] | 64 | 2300
CC(C)(N)C(=O)N1CCN(c2nnc(-c3ccc(CCC(=O)O)cc3)c3ccccc23)CC1 [Example 104, 3-(4-(4-(4-(2-amino-2-methylpropanoyl)piperazin-1-yl)phthalazin-1-yl)phenyl)propanoic acid hydrochloride] | 0.6 | 
Clc1ccc(-c2nnc(OC3CCCNC3)c3ccccc23)cc1 (centres unmarked) [Example 96, 1-(4-chlorophenyl)-4-(piperidin-3-yloxy)phthalazine hydrochloride] | 58.9 | 
